One test concerns the target δ receptor (Rattus norvegicus, UniProt P33533). To be noted: cited from earlier work.
The test system of test [1] is Male, Swiss-Webster mice. The test can be described thus: Tail-flick antinociceptive testing (acute, antagonist and tolerance paradigms). Type of test: in vivo. As to conditions: for Antinociceptive tolerance development vs. Day 1, tail-flick: 15 mg/kg s.c. twice daily for five days, latencies 30 min after administration; for ED50: Mus musculus, sc; for Effect of antagonist pretreatment on UMB 425 antinociception, tail-flick: naloxone 1 mg/kg i.p. −30 min or nor-BNI 30 mg/kg i.p. −24 h before UMB 425 15 mg/kg s.c., 30 min.

The subject of test [2] is Male, Swiss-Webster mice. The test can be described thus: Hot plate antinociceptive testing (acute, antagonist and tolerance paradigms). To be noted: for Antinociceptive tolerance development vs. Day 1, hot plate: 15 mg/kg s.c. twice daily for five days, latencies 30 min after administration; for ED50: Mus musculus, sc; for Effect of antagonist pretreatment on UMB 425 antinociception, hot plate: naloxone 1 mg/kg i.p. −30 min or nor-BNI 30 mg/kg i.p. −24 h before UMB 425 15 mg/kg s.c., 30 min. Type of test: in vivo.

The target of test [3] is T1, human δ opioid receptor (Homo sapiens, UniProt P41143). As to conditions: ref (32); cited from earlier work.
T1 sequence (P41143 whole entry): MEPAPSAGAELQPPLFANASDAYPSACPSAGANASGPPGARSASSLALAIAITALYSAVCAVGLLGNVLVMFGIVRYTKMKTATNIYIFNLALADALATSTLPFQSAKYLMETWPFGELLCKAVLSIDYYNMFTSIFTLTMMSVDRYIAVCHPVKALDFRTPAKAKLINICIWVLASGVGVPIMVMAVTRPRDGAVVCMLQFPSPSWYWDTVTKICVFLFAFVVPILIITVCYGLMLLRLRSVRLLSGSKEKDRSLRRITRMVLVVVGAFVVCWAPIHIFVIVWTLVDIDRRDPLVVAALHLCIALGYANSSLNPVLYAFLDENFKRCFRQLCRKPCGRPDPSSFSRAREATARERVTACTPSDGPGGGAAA
The target in test [4] is T2, human κ opioid receptor (Homo sapiens, UniProt P41145).
T2 construct: expressed in transfected cells; host or cells: CHO cells (membranes)
T2 sequence (P41145 whole entry): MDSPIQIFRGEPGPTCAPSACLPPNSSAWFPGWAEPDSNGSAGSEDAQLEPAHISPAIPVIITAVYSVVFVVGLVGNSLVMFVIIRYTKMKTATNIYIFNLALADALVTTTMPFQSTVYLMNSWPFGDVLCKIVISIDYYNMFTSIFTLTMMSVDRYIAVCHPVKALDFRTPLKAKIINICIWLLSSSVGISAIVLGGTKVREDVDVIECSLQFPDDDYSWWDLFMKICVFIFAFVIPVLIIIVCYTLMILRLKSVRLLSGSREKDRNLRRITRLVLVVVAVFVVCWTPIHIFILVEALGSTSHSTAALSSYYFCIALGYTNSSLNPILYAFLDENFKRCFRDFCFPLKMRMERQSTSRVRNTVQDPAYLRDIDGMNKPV
Briefly: [35S]GTPγS functional assay, hKOR-CHO membranes. To be noted: CHO cell membranes, n/e=no effect. It counts as biochemical.

The target in test [5] is T1, human δ opioid receptor. Briefly: Opioid receptor binding, [3H]DPDPE competition in hDOR-CHO membranes. On the set-up: expressed in transfected cells; host or cells: CHO cells (membranes).
Test [6] has as its target T3, human μ opioid receptor (Homo sapiens, UniProt P35372).
T3 construct: expressed in transfected cells; host or cells: CHO cells (membranes)
The test can be described thus: biochemical.

Test [7] concerns the target T3, human μ opioid receptor. Briefly: biochemical. Type of test: binding.
The target in test [8] is T1, human δ opioid receptor. The test can be described thus: [35S]GTPγS functional assay, hDOR-CHO membranes (agonism; antagonism of DPDPE, Schild plot). Type of test: biochemical. On the set-up: expressed in transfected cells; host or cells: CHO cells (membranes). Background: GTPγS is a poorly hydrolysed GTP analogue; its binding reports G protein activation.
Test [9] addresses T2, human κ opioid receptor. The test can be described thus: biochemical. Type of test: binding.
The mark [10] stands for this setting: 0.5 h, read-out: ED50 Tail-Flick, acute treatment paradigm.
Where [11] appears, read: read-out: ED50 Tail-Flick, Tolerance.
[12] abbreviates: 0.5 h, read-out: ED50 Hot Plate, acute treatment paradigm.
Where [13] appears, read: read-out: ED50 Hot Plate, Tolerance.
Setting [14] is: acute vs. tolerance treatment paradigms.

Each structure is given as a SMILES string.

T3 sequence (P35372 whole entry): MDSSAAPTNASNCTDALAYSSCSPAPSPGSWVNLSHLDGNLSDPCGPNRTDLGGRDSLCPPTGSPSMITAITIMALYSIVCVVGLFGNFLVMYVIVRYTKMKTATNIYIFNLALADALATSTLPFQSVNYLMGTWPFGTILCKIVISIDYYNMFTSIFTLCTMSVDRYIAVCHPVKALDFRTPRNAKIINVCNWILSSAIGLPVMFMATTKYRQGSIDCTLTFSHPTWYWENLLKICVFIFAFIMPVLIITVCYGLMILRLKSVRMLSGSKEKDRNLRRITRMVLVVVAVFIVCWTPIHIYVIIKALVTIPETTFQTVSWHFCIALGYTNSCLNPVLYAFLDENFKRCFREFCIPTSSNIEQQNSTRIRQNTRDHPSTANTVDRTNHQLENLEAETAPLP
Chain of δ receptor (P33533 whole entry): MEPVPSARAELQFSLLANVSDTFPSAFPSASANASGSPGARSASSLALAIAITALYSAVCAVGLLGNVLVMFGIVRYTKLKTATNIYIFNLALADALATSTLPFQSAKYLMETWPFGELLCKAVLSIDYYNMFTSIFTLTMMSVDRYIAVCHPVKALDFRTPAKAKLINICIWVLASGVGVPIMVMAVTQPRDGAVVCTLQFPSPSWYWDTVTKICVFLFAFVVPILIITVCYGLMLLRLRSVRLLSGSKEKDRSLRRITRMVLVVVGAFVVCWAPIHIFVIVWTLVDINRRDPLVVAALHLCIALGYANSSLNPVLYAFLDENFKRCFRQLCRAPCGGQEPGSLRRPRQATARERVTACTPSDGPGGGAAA

Turning to `O=C1/C(=C/c2ccccc2)C[C@@]2(O)[C@H]3Cc4ccc(O)c5c4[C@@]2(CCN3CC2CC2)[C@H]1O5` [(E)-BNTX, (E)-benzylidenenaltrexone], the “Relative % Emax Experimental” value at δ receptor is listed as 0.00.
Broadly, the ED50 is the dose that gives a 50% effect, or the effect in half of the subjects. For `CN1CC[C@]23c4c5ccc(O)c4O[C@H]2[C@@H](O)C=C[C@H]3[C@H]1C5` [Morphine, reference compound], the “Antinociceptive tolerance development vs. Day 1, tail-flick” value in the test on Male, Swiss-Webster mice [1] is “significantly decreased antinociceptive activity on Day 4 and 5”. The ED50 in the test with Male, Swiss-Webster mice [1] (setting [10]) was found to be 6.85 mg/kg; in the test on Male, Swiss-Webster mice [1] (setting [11]), 44.1 mg/kg; in the test on Male, Swiss-Webster mice [2] (setting [12]), 2.73 mg/kg; in the test with Male, Swiss-Webster mice [2] (setting [13]) it was 21.3 mg/kg. In addition, the “Antinociceptive tolerance development vs. Day 1, hot plate” value in the test on Male, Swiss-Webster mice [2] was “significantly decreased antinociceptive activity on Day 4 and 5”.
For the molecule `Oc1ccc2c3c1O[C@H]1c4[nH]c5ccccc5c4C[C@@]4(O)[C@@H](C2)N(CC2CC2)CC[C@]314` [Naltrindole], the “Relative % Emax Experimental” value at δ receptor is given as 0.00. Also, the “pA2 δ (literature)” value at human δ opioid receptor [3] is 10.92.
As to `CN1CC[C@]23c4c5ccc(O)c4O[C@H]2c2[nH]c4ccccc4c2C[C@@]3(O)[C@H]1C5` [Oxymorphindole], on δ receptor, the “Relative % Emax Experimental” value is listed as 0.12.
For the molecule `CN1CC[C@]23c4c5ccc(O)c4O[C@H]2C(=O)C2(Cc4ccccc4C2)C[C@@]3(O)[C@H]1C5` [SIOM, 7-spiroindanyloxymorphone], on δ receptor, the “Relative % Emax Experimental” value is 0.18.
As usually defined, the Ki is a dissociation constant, usually derived from enzyme kinetics or from competition with a known ligand. Usually EC50 stands for the concentration needed to bring the measured effect to its halfway point. As a reminder, the Emax is the size of the effect at its maximum, as opposed to the concentration needed. What is called Kb is the equilibrium dissociation constant of an antagonist, usually derived from a functional assay. A low value points to higher antagonist affinity. `CN1CCC23c4c5ccc(O)c4OC2(CO)C(=O)CCC3(O)C1C5` (stereo not drawn) [UMB 425, 4a,9-dihydroxy-7a-(hydroxymethyl)-3-methyl-2,3,4,4a,5,6-hexahydro-1H-4,12-methanobenzofuro[3,2-e]isoquinolin-7(7aH)-one]: on human κ opioid receptor [4], the “EC50 ± S.E.M. κ (agonist activity)” value was “no significant agonist activity and n/e”. The values for the inhibition constant (Ki) at human δ opioid receptor [5], on human μ opioid receptor [7] and on human κ opioid receptor [9] were 208 ± 18 nM, 3.2 ± 0.14 nM and 212 ± 21 nM, respectively. For the same molecule, at human δ opioid receptor [5] (ratio of Ki values), the “δ/μ binding affinity ratio” value is 65. Also, the “% Emax μ” value at human μ opioid receptor [6] turned out to be 73±7.3%. Besides, on human μ opioid receptor [6], the response was half-maximal at 35 ± 3.7 nM (EC50). Further, the maximal response (Emax) on human μ opioid receptor [6] (read-out: % Emax ± S.E.M. μ) worked out at 73 ± 7.3%. In addition, the “Antinociceptive tolerance development vs. Day 1, tail-flick” value in the test on Male, Swiss-Webster mice [1] is on record as “n.s”. Moreover, the “Antinociceptive activity compared with morphine in tolerance paradigm, tail-flick” value with Male, Swiss-Webster mice [1] (Day 5, 15 mg/kg s.c. twice daily) was “statistically greater antinociceptive activity than morphine”. In addition, the 50% effective dose (ED50) in the test with Male, Swiss-Webster mice [1] (setting [10]) was determined as 8.83 mg/kg; with Male, Swiss-Webster mice [1] (setting [11]) it was 11.6 mg/kg; in the test on Male, Swiss-Webster mice [2] (setting [12]), 4.3 mg/kg; with Male, Swiss-Webster mice [2] (setting [13]), 13 mg/kg. In addition, in the test with Male, Swiss-Webster mice [1] (setting [14]), the “Shift in ED50, Tail-Flick” value was found to be 1.3 fold. Further, in the test with Male, Swiss-Webster mice [1] (tolerance paradigm), the “Reduction in ED50 shift compared to morphine, tail-flick” value is on record as 4.9 fold. In addition, the Kb on human δ opioid receptor [8] was 759 nM. The “pA2 δ” value on human δ opioid receptor [8] (Schild plot, DPDPE dose-response curves with 200 nM, 600 nM, 2 μM UMB 425) came to 6.12. In addition, the “EC50 ± S.E.M. δ (agonist activity)” value on human δ opioid receptor [8] ([35S]GTPγS, CHO cell membranes, n/e=no effect) is “no significant agonist activity and n/e”. In addition, the “κ/μ binding affinity ratio” value on human κ opioid receptor [9] is 66. For the same molecule, the “Antinociceptive tolerance development vs. Day 1, hot plate” value in the test with Male, Swiss-Webster mice [2] is “significantly decreased antinociceptive activity on Day 4 and 5”. Also, the “Antinociceptive activity compared with morphine in tolerance paradigm, hot plate” value with Male, Swiss-Webster mice [2] (Day 4 and 5, 15 mg/kg s.c. twice daily) is recorded as “statistically greater antinociceptive activity than morphine”. The “Shift in ED50, Hot Plate” value in the test on Male, Swiss-Webster mice [2] (setting [14]) stood at 3.0 fold. The “Reduction in ED50 shift compared to morphine, hot plate” value with Male, Swiss-Webster mice [2] (tolerance paradigm) is listed as 2.6 fold.
For the molecule `C=CCN1CC[C@]23c4c5ccc(O)c4O[C@H]2C(=O)CC[C@@]3(O)[C@H]1C5` [naloxone, reference compound], the “Effect of antagonist pretreatment on UMB 425 antinociception, tail-flick” value in the test on Male, Swiss-Webster mice [1] is listed as “significantly attenuated UMB 425-mediated antinociception”. In addition, in the test with Male, Swiss-Webster mice [2], the “Effect of antagonist pretreatment on UMB 425 antinociception, hot plate” value is reported as “significantly attenuated UMB 425-mediated antinociception”.
With `Oc1ccc2c3c1O[C@H]1c4[nH]c5c(c4C[C@@]4(O)[C@@H](C2)N(CC2CC2)CC[C@]314)C[C@@]1(O)[C@H]2Cc3ccc(O)c4c3[C@@]1(CCN2CC1CC1)[C@H]5O4` [nor-BNI, norbinaltorphimine, reference compound], the “Effect of antagonist pretreatment on UMB 425 antinociception, tail-flick” value in the test on Male, Swiss-Webster mice [1] was “failed to significantly attenuate UMB 425-mediated antinociception”. Further, the “Effect of antagonist pretreatment on UMB 425 antinociception, hot plate” value with Male, Swiss-Webster mice [2] is “failed to significantly attenuate UMB 425-mediated antinociception”.
